Data on eight compounds can be found in patent publication US5459142A, “Pyrazinyl and piperazinyl substituted pyrazine compounds” (Otsuka Pharmaceutical Co., Ltd., priority 1991, dated 1995).

The structures appear in SMILES notation. In brackets after ≈: the same amount, converted by molar mass.

For assay [1], the system named is superoxide radicals (O2^-) released from peritoneal macrophage cells of guinea pig. The experiment in a line: Inhibitory effect against superoxide radicals released from peritoneal macrophage cells of guinea pig by stimulation (FMLP), cytochrome C reduction. In kind it is cell-based. The conditions noted are these: Cavia porcellus, Peritoneal macrophage cell; guinea pig peritoneal macrophages 2×10^6 cells/ml; FMLP 10^-7 M; 37° C.; OD550; read-out: IC50 (superoxide radical release). How it is done: Inhibitory effect against superoxide radicals released from the peritoneal macrophage cells of guinea pig by stimulation:
Mineral oil (15 ml) was intraperitoneally administered to a guinea pig, then 96 hours after the administration, the peritoneal macrophage cells were sampled.
Superoxide radicals (O2^-) were determined by means of reduction of cytochrome C method according to the procedure described in an article written by T. Matsumoto, K. Takeshige and S. Minakami: Biochemical and Biophysical Research Communications, Vol. 88, No. 3, pp. 974-979, (1979).
The peritoneal macrophage cells were added to make the final concentration of 2×10^6 cells/ml into ml of 80 μM-cytochrome C solution, and the test compound of pyrazine derivative of the present invention was added thereto to make the test group sample. On the other hand, water was added in place of the test compound of the present invention to make the control group sample. Each of the test group sample and the control group sample was subjected to pre-incubation at 37° C. for 1 minute.
As to the stimulating agent for releasing superoxide radicals (O2^-), FMLP (formylmethionyl leucyl phenylalanine) was added to make the final concentration thereof to 10^-7 M, to each of the test group sample and the control group sample. Then both samples were subjected to additional reaction by incubation for 1 minute.
Difference of the optical absorbances measured at 550 nm (OD550) of both test group and control group samples were determined, and the 50% inhibitory concentration (IC50) was obtained by calculating as the ratio of OD550 of the test group sample to that of the control group sample.

In assay [2] the test system is releasing of hydrogen peroxide (H2O2) from the neutrocytes of rat abdominal cavity. The experiment in a line: Inhibitory effect against the releasing of hydrogen peroxide (H2O2) from the neutrocytes of rat abdominal cavity. It counts as cell-based, SD-strain rat. The conditions noted are these: rat neutrocytes 10^6 cells/ml; FMLP 2×10^-6 M; 37° C., 1 hour; OD510. How it is done: Inhibitory effect against the releasing of hydrogen peroxide (H2 O2) from the neutrocytes of rat abdominal cavity
1) 1%-Casein solution was administered to the adbominal cavity of a SD-strain rat, then 16 hours after the administration, the neutrocytes were obtained by washing the abdominal cavity. Thus obtained neutrocytes were washed with Hank's solution.
2) The formulation of the reaction mixture(*) was as follows: […]
______________________________________
Rat neutrocytes 10^6 cells/ml
Text compound was added to the reaction mixture, then the whole mixture was incubated at 37° C. for 1 hour.
3) Next, the reacted mixture was subjected to centrifugal separation at 2,000 rpm for 10 minutes, then ml of the supernatant liquor was taken as a sample and microliters of 1N-NaOH solution was added thereto.
4) The optical absorbance at 510 nm (OD510) was determined by means of using a spectrophotometer. The 50% inhibitory concentration was obtained by calculating as the ratio of OD510 of the test group sample to that of the control group sample.

Assay [3] has as its system releasing of lysosome from the neutrocytes of rat. The experiment in a line: Inhibitory effect against the releasing of lysosome from the neutrocytes of rat. In kind it is cell-based. The following applies: rat neutrocytes 5×10^5 cells/ml; 10^-6 M FMLP and 5 μg/ml cytochalasin B; OD540. How it is done: Inhibitory effect against the releasing of lysosome from the neutrocytes of rat
The neutrocytes of rat were sampled from the abdominal cavity of the rat 16 hours after the administration of 10 ml of 1%-casein solution (physiological saline solution).
Reaction of the releasing of lysosome from the neutrocytes of rat was determined by means of the method as described in an article written by T. Matsumoto, K. Takeshige and S. Minakami: Biochemical and Biophysical Research Communications, Vol. 88, No. 3, pp. 974-979, (1979).
The neutrocytes being sampled were added to Hank's solution so as to make the concentration thereof as 5×10^5 cells/ml, and the test compound of pyrazine derivative of the present invention was added thereto to make the test group sample. On the other hand, water as added in place of the pyrazine derivative of the present invention to make the control group sample. Each of the test group sample and the control group sample was subjected to pre-incubation at 37° C. for 1 minute.
As to the stimulating agents, 10^-6 M of FMLP (formylmethionyl leucyl phenylalanine) and 5 μg/ml of cytochalasin B were added to the solution. […] After the reaction, 1N-NaOH solution was added to the reaction mixture so as to make the pH value thereof to pH 8 to 9, and the optical absorbance of both test group samples and control group samples were determined at 540 nm (OD540). […]

In the case of `COc1c(C(=O)Nc2ccc3c(c2)OCO3)[nH]c(=O)c(CC(C)C)[n+]1[O-]` [Example 4], the IC50 (as a rule, the concentration that inhibits the measured activity by half) in assay [1] turned out to be 56 µg/mL (≈ 155 µM).

As to `COc1c(C(=O)Nc2cc(C(C)(C)C)c(O)c(C(C)(C)C)c2)[nH]c(=O)c(CC(C)C)[n+]1[O-]` [Example 5], the results for the IC50 in assay [2] and in assay [1] were 60 µg/mL (≈ 135 µM) and 17 µg/mL (≈ 38.2 µM), respectively.

For the compound `COc1c(C(=O)Nc2ccccc2-c2ccccc2)[nH]c(=O)c(CC(C)C)[n+]1[O-]` [Example 6], the IC50 in assay [3] was determined as 20 µg/mL; in assay [1], 3 µg/mL (≈ 7.62 µM).

For the compound `COc1ccc2nc(NC(=O)c3[nH]c(=O)c(CC(C)C)[n+]([O-])c3OC)sc2c1` [Example 8], in assay [1], the IC50 amounted to 10 µg/mL (≈ 24.7 µM).

As for `COc1cccc(NC(=O)c2[nH]c(=O)c(CC(C)C)[n+]([O-])c2OC)c1` [Example 2], in assay [1], the half-maximal inhibitory concentration (IC50) turned out to be 40 µg/mL (≈ 115 µM).

In the case of `COc1c(C(=O)Nc2nc3ccccc3s2)[nH]c(=O)c(CC(C)C)[n+]1[O-]` [Example 7], the 50% inhibitory concentration (IC50) in assay [3] is 16 µg/mL; in assay [1] it was 18 µg/mL (≈ 48.1 µM).

For `COc1c(C(=O)Nc2cccc(SC)c2)[nH]c(=O)c(CC(C)C)[n+]1[O-]` [Example 3], the IC50 in assay [1] was 20 µg/mL (≈ 55 µM).

`COc1cccc(CNC(=O)c2[nH]c(=O)c(CC(C)C)[n+]([O-])c2OC)c1` [Test compound 1, 3-Isobutyl-5-methoxy-6-[N-(3-methoxybenzyl)]-carbamoyl-1,2-dihydropyrazin-2-one 4-oxide]: the IC50 in assay [1] came out at 30 µg/mL (≈ 83 µM).
